Measured values: patent publication US10829520B2, “Beta-hairpin peptidomimetics” (POLYPHOR AG, priority 2015, dated 2020)
Where a SMILES comes first, the peptide text is derived from it. Bridges are numbered along the chain shown (N, C = ends). [ ]: non-standard residue; d: D form. Tle = CC(C)(C)[C@H](N)C(=O)O; dDab = NCC[C@@H](N)C(=O)O; Nle = CCCC[C@H](N)C(=O)O; Orn = NCCC[C@H](N)C(=O)O; Dab = NCC[C@H](N)C(=O)O

Legend:
Type in all cases: cell-based
[1] = system: human red blood cells (hRBC); experiment: Hemolysis of human red blood cells; conditions: red cells of human, 1 h
Summary of the method: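 hRBC washed 3× PBS; 20% v/v, ~0.9×10^9 cells/mL final. Peptide 100 μg/mL, 1 h, 37° C., 300 rpm. Spin, supernatant diluted 8×, OD540. 0% = PBS + 0.001% acetic acid; 100% = 2.5% Triton X-100. % hemolysis = OD540 peptide/OD540 full lysis × 100.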

[2] = system: Pseudomonas aeruginosa ATCC 27853; conditions: ATCC 27853
Summary of the method: (§1)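 Minimal inhibitory concentrations were recorded in μg/mL after the strains grew 18-20 hours at 35° C with two-fold serial peptide dilutions. The medium was Mueller-Hinton II (cation-adjusted) with 0.002% Polysorbate 80, and the inoculum was about 10^6 CFU/mL.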

[3] = system: Klebsiella pneumoniae 968733; conditions: 968733
[4] = system: Acinetobacter baumannii DSM 30008; conditions: DSM 30008
Summary of the method: as §1

[5] = system: Klebsiella pneumoniae SSI #3010; conditions: SSI #3010
Summary of the method: as §1

[6] = system: Escherichia coli ATCC 25922; conditions: ATCC 25922
Summary of the method: as §1

[7] = system: Escherichia coli 926415; conditions: 926415
[8] = system: Acinetobacter baumannii 872842; conditions: 872842

SMILES | Hemolysis at 100 μg/mL ([1]; 100 μg/mL) [%] | Pseudomonas aeruginosa ATCC 27853 MIC [2] [µg/mL] | Klebsiella pneumoniae 968733 MIC [3] [µg/mL] | Acinetobacter baumannii DSM 30008 MIC [4] [µg/mL] | Klebsiella pneumoniae SSI #3010 MIC [5] [µg/mL] | Escherichia coli ATCC 25922 MIC [6] [µg/mL] | Escherichia coli 926415 MIC [7] [µg/mL] | Acinetobacter baumannii 872842 MIC [8] [µg/mL] | Hemolysis at 100 μg/mL [1]; 100 [%]
CCCC[C@@H]1NC(=O)[C@@H]2CCCN2C(=O)[C@H]2CCCN2C(=O)[C@H](CO)NC(=O)[C@H](C)NC(=O)[C@H](C(C)(C)C)NC(=O)[C@@H](NC(=O)[C@H](Cc2c[nH]c3ccccc23)NC(C)=O)CSSC[C@@H](C(=O)N[C@@H](CCCN)C(=O)N[C@@H](CCN)C(=O)N[C@H]2CCNC(=O)[C@H]([C@@H](C)O)NC(=O)[C@H](CCN)NC(=O)[C@H](CCN)NC(=O)[C@H](CC(C)C)NC(=O)[C@@H](CC(C)C)NC(=O)[C@H](CCN)NC2=O)NC(=O)[C@H](Cc2ccc(O)cc2)NC(=O)[C@H](CO)NC1=O [Ex. 54] (Ac-WC[Tle]AS[dP]P[Nle]SYC[Orn][Dab][Dab][Dab][dL]L[Dab][Dab]T; disulfide 2-11; lactam 14-C) | 1 | 2 | 4 | 0.5 | 0.5 | 0.25 | 1 | 1 | 
CCCC[C@@H]1NC(=O)[C@@H]2CCCN2C(=O)[C@H]2CCCN2C(=O)[C@H](CO)NC(=O)[C@H](C)NC(=O)[C@H](C(C)(C)C)NC(=O)[C@H](CCN)NC(=O)[C@H](Cc2c[nH]c3ccccc23)NC(=O)[C@@H](NC(C)=O)CSSC[C@@H](C(=O)N[C@@H](CCN)C(=O)N[C@H]2CCNC(=O)[C@H]([C@@H](C)O)NC(=O)[C@H](CCN)NC(=O)[C@H](CCN)NC(=O)[C@H](CC(C)C)NC(=O)[C@@H](Cc3ccccc3)NC(=O)[C@H](CCN)NC2=O)NC(=O)[C@H](CCCN)NC(=O)[C@H](CCN)NC(=O)[C@H](Cc2ccc(O)cc2)NC(=O)[C@H](CO)NC1=O [Ex. 57] (Ac-CW[Dab][Tle]AS[dP]P[Nle]SY[Dab][Orn]C[Dab][Dab][Dab][dF]L[Dab][Dab]T; disulfide 1-14; lactam 16-C) | <1 | 0.5 | 8 | 1 | 0.25 | 0.25 | 1 | 4 | 
CCCC[C@@H]1NC(=O)[C@@H]2CCCN2C(=O)[C@H]2CCCN2C(=O)[C@H](CO)NC(=O)[C@H](C)NC(=O)[C@H](C(C)(C)C)NC(=O)[C@H](CCN)NC(=O)[C@H](Cc2c[nH]c3ccccc23)NC(=O)[C@@H](NC(C)=O)CCC(=O)NCC[C@@H](C(=O)N[C@@H](CCN)C(=O)N[C@H]2CCNC(=O)[C@H]([C@@H](C)O)NC(=O)[C@H](CCN)NC(=O)[C@H](CCN)NC(=O)[C@H](CC(C)C)NC(=O)[C@@H](Cc3ccccc3)NC(=O)[C@H](CCN)NC2=O)NC(=O)[C@H](CCCN)NC(=O)[C@H](CCN)NC(=O)[C@H](Cc2ccc(O)cc2)NC(=O)[C@H](CO)NC1=O [Ex. 58] (Ac-EW[Dab][Tle]AS[dP]P[Nle]SY[Dab][Orn][Dab][Dab][Dab][Dab][dF]L[Dab][Dab]T; lactam 1-14, 16-C) |  | 0.5 | 2 | 0.25 | 0.125 | 0.125 | 0.25 | 0.5 | <1
CCCC[C@@H]1NC(=O)[C@@H]2CCCN2C(=O)[C@H]2CCCN2C(=O)[C@H](CO)NC(=O)[C@H](C)NC(=O)[C@H](C(C)(C)C)NC(=O)[C@H](CCN)NC(=O)[C@H](Cc2c[nH]c3ccccc23)NC(=O)[C@@H](NC(C)=O)CCNC(=O)CC[C@@H](C(=O)N[C@@H](CCN)C(=O)N[C@H]2CCNC(=O)[C@H]([C@@H](C)O)NC(=O)[C@H](CCN)NC(=O)[C@H](CCN)NC(=O)[C@H](CC(C)C)NC(=O)[C@@H](Cc3ccccc3)NC(=O)[C@H](CCN)NC2=O)NC(=O)[C@H](CCCN)NC(=O)[C@H](CCN)NC(=O)[C@H](Cc2ccc(O)cc2)NC(=O)[C@H](CO)NC1=O [Ex. 59] (Ac-[Dab]W[Dab][Tle]AS[dP]P[Nle]SY[Dab][Orn]E[Dab][Dab][Dab][dF]L[Dab][Dab]T; lactam 1-14, 16-C) |  | 1 | 2 | 0.5 | 0.5 | 0.25 | 0.5 | 2 | <1
CCCC[C@@H]1NC(=O)[C@@H]2CCCN2C(=O)[C@H]2CCCN2C(=O)[C@H](CO)NC(=O)[C@H](C)NC(=O)[C@H](C(C)(C)C)NC(=O)[C@H](CCN)NC(=O)[C@H](Cc2c[nH]c3ccccc23)NC(=O)[C@@H](NC(C)=O)CSSC[C@@H](C(=O)N[C@H](CCN)C(=O)N[C@H]2CCNC(=O)[C@H]([C@@H](C)O)NC(=O)[C@H](CCN)NC(=O)[C@H](CCN)NC(=O)[C@H](CC(C)C)NC(=O)[C@@H](Cc3ccccc3)NC(=O)[C@H](CCN)NC2=O)NC(=O)[C@H](CCCN)NC(=O)[C@H](CCN)NC(=O)[C@H](Cc2ccc(O)cc2)NC(=O)[C@H](CO)NC1=O [Ex. 60] (Ac-CW[Dab][Tle]AS[dP]P[Nle]SY[Dab][Orn]C[dDab][Dab][Dab][dF]L[Dab][Dab]T; disulfide 1-14; lactam 16-C) | <1 | 0.5 | 1 | 1 | 0.25 | 0.0625 | 0.25 | 1 | 
CCCC[C@@H]1NC(=O)[C@@H]2CCCN2C(=O)[C@H]2CCCN2C(=O)[C@H](CO)NC(=O)[C@H](C)NC(=O)[C@H](C(C)(C)C)NC(=O)[C@H](CCN)NC(=O)[C@H](Cc2c[nH]c3ccccc23)NC(=O)[C@@H](NC(C)=O)CSSC[C@@H](C(=O)N[C@@H](CCN)C(=O)N[C@@H](CCN)C(=O)N[C@H]2CCNC(=O)[C@H]([C@@H](C)O)NC(=O)[C@H](CCN)NC(=O)[C@H](CCN)NC(=O)[C@H](CC(C)C)NC(=O)[C@@H](Cc3ccccc3)NC(=O)[C@H](CCN)NC2=O)NC(=O)[C@H](CCCN)NC(=O)[C@H](CCN)NC(=O)[C@H](Cc2ccc(O)cc2)NC(=O)[C@H](CO)NC1=O [Ex. 61] (Ac-CW[Dab][Tle]AS[dP]P[Nle]SY[Dab][Orn]C[Dab][Dab][Dab][Dab][dF]L[Dab][Dab]T; disulfide 1-14; lactam 17-C) | <1 | 0.25 | 8 | 1 | 1 | 0.5 | 2 | 1 | 
CCCC[C@@H]1NC(=O)[C@@H]2CCCN2C(=O)[C@H]2CCCN2C(=O)[C@H](CO)NC(=O)[C@H](C)NC(=O)[C@H](C(C)(C)C)NC(=O)[C@H](CCN)NC(=O)[C@H](Cc2c[nH]c3ccccc23)NC(=O)[C@@H](NC(C)=O)CSSC[C@@H](C(=O)N[C@@H](CCN)C(=O)N[C@H](C(=O)N[C@@H](CCN)C(=O)N[C@H]2CCNC(=O)[C@H]([C@@H](C)O)NC(=O)[C@H](CCN)NC(=O)[C@H](CCN)NC(=O)[C@H](CC(C)C)NC(=O)[C@@H](Cc3ccccc3)NC(=O)[C@H](CCN)NC2=O)[C@@H](C)O)NC(=O)[C@H](CCCN)NC(=O)[C@H](CCN)NC(=O)[C@H](Cc2ccc(O)cc2)NC(=O)[C@H](CO)NC1=O [Ex. 62] (Ac-CW[Dab][Tle]AS[dP]P[Nle]SY[Dab][Orn]C[Dab]T[Dab][Dab][Dab][dF]L[Dab][Dab]T; disulfide 1-14; lactam 18-C) | 1 | 0.5 | 8 | 0.5 | 0.5 | 0.25 | 1 | 0.5 | 
CCCC[C@@H]1NC(=O)[C@@H]2CCCN2C(=O)[C@H]2CCCN2C(=O)[C@H](CO)NC(=O)[C@H](C)NC(=O)[C@H](C(C)(C)C)NC(=O)[C@H](CCN)NC(=O)[C@H](Cc2c[nH]c3ccccc23)NC(=O)[C@H](NC(C)=O)CSSC[C@@H](C(=O)N[C@@H](CCN)C(=O)N[C@H](C(=O)N[C@@H](CCN)C(=O)N[C@H]2CCNC(=O)[C@H]([C@@H](C)O)NC(=O)[C@H](CCN)NC(=O)[C@H](CCN)NC(=O)[C@H](CC(C)C)NC(=O)[C@@H](Cc3ccccc3)NC(=O)[C@H](CCN)NC2=O)[C@@H](C)O)NC(=O)[C@H](CCCN)NC(=O)[C@H](CCN)NC(=O)[C@H](Cc2ccc(O)cc2)NC(=O)[C@H](CO)NC1=O [Ex. 63] (Ac-[dC]W[Dab][Tle]AS[dP]P[Nle]SY[Dab][Orn]C[Dab]T[Dab][Dab][Dab][dF]L[Dab][Dab]T; disulfide 1-14; lactam 18-C) | <1 | 0.5 | 8 | 2 | 2 | 0.5 | 3 | 2 | 
